# Measured values published in patent US6086789A, “Medical uses of pyruvates” (Case Western Reserve University, priority 1998, dated 2000).
# Assays:
# [1] = system: ketoacidotic diabetic rats; test: Treatment of ketoacidotic diabetic BB rats; format: in vivo
# Experimental: Prediabetic male BB rats were purchased from the University of Massachussetts Breeding Center. They were treated with insulin (PZI 40 U/mL, Anpro Pharmaceutical), mean of 2.1 U for rats weighing between 250-300 g) as soon as they became hyperglycemic. They were used after at least three weeks of clinical stability and steady weight growth. Under general anesthesia, permanent catheters were inserted in a carotid artery and the controlateral external jugular vein. Then, the rats were deprived of insulin for two days. […] The rats were then treated with one of four protocols: […]
# [2] = system: ethanol oxidation; details: intragastric gavage, dogs; cited from earlier work
# [3] = system: reperfused rat hearts; details: cited from earlier work
# [4] = system: myocardial infarct; test: Decrease in myocardial infarct size in swine (LAD occlusion/reperfusion); format: in vivo
# Experimental: Decrease in myocardial infarct size in swine by DPAG.
# The animals were anesthetized, instrumented, and subjected to 60 minutes of total occlusion of the distal 2/3 of the left anterior descending coronary artery, followed by 120 min of reperfusion. The area of the infarct was stained with tetrazolium, and infarct size quantitated on 5 mm slices of tissue. Treatment with DPAG was started with the onset of reperfusion (8.0 mg/kgmin for 120 min).
# [5] = system: isolated rabbit hearts; test: Recovery of isolated rabbit hearts following 25 min of warm ischemia; parameters: species or system New Zealand rabbits; details: 20 μM PNACE
# Experimental: In the working mode, which simulates physiological conditions, hearts pump the buffer against a 85 cm hydrostatic pressure in the aorta. The mechanical performance of the hearts was assessed by monitoring heart rate, cardiac output, coronary flow, left ventricular pressure, and dP/dtmax. The latter parameter reflects the capacity of the heart to increase hydrostatic pressure in the left ventricle. Following 30 minutes of equilibration, the hearts were made ischemic for 25 minutes by clamping the aortic and left atrial canulas. Then, the clamps were removed to allow reperfusion with oxygenated KRB buffer containing either no additive (n=7, control group), or 20 μM pyruvate-N-acetyl-cysteine ethyl ester ([…]=7). PNACE was infused via a syringe pump into the inflowing perfusate. In the syringe, PNACE was dissolved in 0.1 mM HCl to prevent hydrolysis of the thioester.
# [6] = Stability of PNACE in solution; format: physicochemical
# Excerpt: However, the present inventive compound has proven to be readily manufacturable and very effective in the prevention of organ damage associated with reperfusion injury. The compound has been prepared in pure form and in gram amounts. Its formula has been confirmed by elemental analysis and gas chromatography-mass spectrometry. The compound is stable in slightly acidic solutions (pH 4-5). […] The compound has also been synthesized labeled with three deuterium ^2 H atoms on the N-acetyl moiety. This deuterated compound is used as an internal standard for the assay of the compound by isotope dilution gas chromatography-mass spectrometry.
# [7] = system: preserved rat livers; test: Metabolic integrity of preserved rat livers upon reperfusion
# Experimental: Improved function of preserved rat livers
# The first group of livers (n=7, control group) was not preserved, but was perfused at 37° C. for 45 minutes. The second group of livers (n=8, preserved group) was flushed with ice-cold University of Wisconsin (UW) preservation solution and stored for 24 hours in ice-cold UW solution. Next, the livers were reperfused at 37° C. with non-recirculating KRB buffer containing 5 mM glucose. The third group of livers (n=8, preserved+PNACE group) was treated as the second group except that 20 μM PNACE was added to the UW preservation solution and to the reperfusion KRB buffer. During the last 45 min of (re)perfusion, the function of the three groups of livers was assessed by (i) the release of three cellular enzymes, i.e. lactate dehydrogenase, aspartate aminotransferase, and alanine aminotransferase, (ii) oxygen consumption, and (iii) the production of ketone bodies, ie β-hydroxybutyrate+acetoacetate, after addition of 1 mM octanoate to the perfusate.
# Effect of PNACE on metabolic integrity of preserved rat livers upon reperfusion
# [8] = system: perfused rat livers; test: Acceleration of ethanol oxidation by components of pyruvate esters in perfused rat livers; details: perfused liver
# Experimental: Acceleration of ethanol oxidation
# Rat livers were infused with ethanol and the components of the esters of glycerol-and-DHA pyruvate to represent the conditions that will occur after ester hydrolysis. […] After 10 min baseline, the influent perfusate was enriched with various equimolar concentrations of the components of the esters, ie DHA+Na-pyruvate, or glycerol+Na-pyruvate (up to 2.2 mM). These conditions simulated infusion and hydrolysis of glycerol- or DHA-monopyruvate. The uptakes of ethanol, pyruvate, DHA and glycerol, as well as the productions of lactate and glucose were measured.
# [9] = Therapeutic pyruvate concentration in vivo, infusion of rats; parameters: species or system rat
# Experimental: Therapeutic pyruvate concentration in vivo with DPAG
# After preparing pure DPAG, experiments were performed to test whether it could be used to impose a therapeutic concentration of 1 mM pyruvate in arterial blood. Overnight-fasted rats, anesthetized with halothane, were infused in the jugular vein with DPAG at 90 μmol·min^-1 ·kg^-1 for 90 min. This rate corresponds to about 120% of the rats' caloric requirement. Five blood samples (70 μl) were taken from the carotid artery between 60 and 90 min. The arterial concentrations of pyruvate, lactate, and glycerol were clamped at 1.0, 2.5, and 0.8 mM, respectively. Corresponding portal vein concentrations at 90 min were 0.6, 2.5, and 1.0 mM, respectively. FIGS. 8 and 9 show blood concentrations of metabolites in rats infused with DPAG (panel A) and in control rats infused with saline (panel B). Control rats show normal arterial concentrations of pyruvate (0.05 mM) and lactate (0.3 to 0.6 mM; normal values for lactate are up to 1.5 mM). In rats infused with DPAG, the arterial concentrations of pyruvate and lactate were clamped at 1.0, and 2.5 mM, respectively. Corresponding portal vein concentrations at 90 min were 0.6 and 2.5 mM, respectively. Arterial glucose remained at 5-6 mM. […] Thus, DPAG can be safely used to set up the 1 mM target concentration of pyruvate expected to be beneficial for the treatment of reperfusion injury. […] Third, during peripheral administration of DPAG at 90 μmol·min^-1 ·kg^-1, portal pyruvate concentration was about 2/3 that which yielded a 3 to 6-fold increase in ethanol uptake by perfused rat livers. A portal pyruvate concentration of 1 mM could be achieved (i) by increasing the peripheral infusion of DPAG to 120 μmol·min^-1 ·kg^-1, or (ii) by administering DPAG enterally to better target portal vein concentrations.
# [10] = system: perfused rat livers; test: Effect of DPAG on ethanol uptake by perfused rat livers; details: DPAG raised from zero to 0.5 mM, 2 mM ethanol, read-out: increase of ethanol uptake by the liver
# Experimental: The effect of DPAG on the rate of ethanol uptake by perfused rat livers was also tested. Livers were perfused with non-recirculating buffer containing 4 mM glucose, 2 mM ethanol and variable concentrations of DPAG (0 to 1.5 mM). […] Note that 0.5 mM DPAG corresponds to 1 mM pyruvate after hydrolysis. Thus, to accelerate ethanol oxidation in vivo, the rate of DPAG administration should be adjusted to achieve a 1 mM concentration of free pyruvate in the portal vein. When DPAG was infused to live rats at 90 μmol·min^-1·kg^-1, the portal vein concentration of pyruvate was 0.6 mM. A portal pyruvate concentration of 1 mM could be achieved in vivo (i) by increasing the peripheral infusion of DPAG to 120 μmol·min·^-1 ·kg^-1, or (ii) by administering DPAG enterally to better target portal vein concentrations.
# [11] = system: isolated rabbit hearts; test: Recovery of isolated rabbit hearts following massive catecholamine injury; details: 50 μM isoproterenol, after 10 minutes
# Experimental: Recovery of isolated rabbit hearts following massive catecholamine injury
# Rabbit hearts were perfused in the working mode as in the above example. However, after the 30 minutes of equilibration, 50 μM isoproterenol was added to the inflowing perfusate for 10 min. Isoproterenol is a catecholamine, which, at the dose administered, induces a marked increase in heart rate and cardiac output. After 10 minutes, the mechanical performance of the hearts decreased markedly to the point where cardiac output was almost zero. Then, isoproterenol infusion was stopped, and perfusion was continued for 30 minutes with oxygenated KRB buffer containing either no additive (n=7, control group), or 20 μM PNACE (n=7).
# [12] = Group III preserved + PNACE (20 μM), 25-30 min.
# [13] = preserved reperfused rat livers, 20 μM PNACE
molecule,measurement,setting,value
insulin,decrease of total KB concentration,"[1]; 0.75 U insulin intravenously + saline, 2 hr",30%
O=C(O)O [NH4 HCO3],rate of ethanol oxidation,[2],increases the rate of ethanol oxidation
CC(=O)N[C@@H](CS)C(=O)O [acetylcysteine],production of ROS,[3],decreases the production of ROS
"CCOC(=O)[C@H](CSC(=O)C(C)=O)NC(C)=O [PNACE, Pyruvate-N-acetyl-L-cysteine ethyl ester]","infarct size, percent of the area at risk for infarction",[4]; PNACE group (n=4),about 16±4%
same,duration of functional recovery,[5],lasted throughout the 30 minute reperfusion experiment
same,stability in slightly acidic solutions,[6]; pH 4-5,stable
same,hydrolysis to pyruvate and N-acetylcysteine ethyl ester,[6]; pH 7.4,slowly hydrolyzed
same,Release of lactate dehydrogenase,"[7]; Group III preserved + PNACE (20 μM), 10-14 min.",4.5 U/L.g
same,Oxygen consumption,[7]; [12],2.4 µmol/min/g
same,Release of alanine aminotransferase,[7]; [12],0.33 U/L.g
same,Release of aspartate amino-transferase,[7]; [12],0.73 U/L.g
same,Ketone body production,"[7]; Group III preserved + PNACE (20 μM), 25-30 min., 1 mM octanoate",1.4 µmol/min/g
same,capacity of the liver to oxidize fatty acids to ketone bodies,[7]; [13],restores partially the capacity of the liver to oxidize fatty acids to ketone bodies
same,initial release of tissue enzymes,[7]; [13],markedly decreases the initial release of tissue enzymes
same,oxygen consumption (in words),[7]; [13],restores oxygen consumption to the level of non-preserved livers
CC(=O)C(=O)O [pyruvate],increase in ethanol uptake by perfused rat livers,[8],3-6 fold
"CC(=O)OCC(COC(=O)C(C)=O)OC(=O)C(C)=O (stereo not shown) [DPAG, dipyruvyl-acetyl-glycerol]",decrease of total KB concentration,"[1]; DPAG 90 μmol.min^-1 kg^-1 in saline infusion, in 2 hr",90%
same,tolerability of massive doses,[1]; compromised BB rats in diabetic ketoacidosis,well tolerated
same,"infarct size, percent of the area at risk for infarction","[4]; DPAG 8.0 mg/kgmin for 120 min from onset of reperfusion, n=6, p<0.0005 vs control 40.0±3.6%",9.1±3.8%
same,effect on heart rate or ventricular pressure,[4]; DPAG infusion,did not affect heart rate or ventricular pressure
same,Arterial glucose,[9]; DPAG 90 μmol.min^-1.kg^-1,5 to 6 mM
same,portal vein concentration of lactate,"[9]; DPAG 90 μmol.min^-1.kg^-1, at 90 min",2.5 mM
same,acid-base and electrolyte parameters of aortic blood,"[9]; DPAG 90 μmol.min^-1.kg^-1, final samples",normal acid-base and electrolyte parameters
same,arterial concentration of lactate,"[9]; DPAG 90 μmol.min^-1.kg^-1 jugular vein, 60-90 min",2.5 mM
same,sodium overload and/or acid-base perturbations,[9]; DPAG at 1 mM arterial pyruvate,without sodium overload and/or acid-base perturbations
same,increases in glucose and lactate concentrations,[9]; DPAG at 120% of the caloric requirement,lack of major increases in glucose and lactate concentrations
same,fold induction at 500 µM,[10],2.5
CC(C)NCC(O)c1ccc(O)c(O)c1 (stereo not shown) [isoproterenol],cardiac output after isoproterenol,[11],almost zero
